Counter-ions that a name gives are not always drawn. Numbered stars: 1 amine (or outer) side, 2 acyl side, 3 side chain; on linkers, the order of the positions; unused ones are H or OH. Bridge positions count the residues as written; N and C are the ends. Square brackets hold non-standard residues; d marks the D form. Peptide text beside a SMILES is read from it. * marks the point of attachment. ξ: configuration not given here. X25 = CC(O)[C@@H](C(=O)[*:2])N(CCC1(N)CCCCC1)[*:1]; Hyp = O=C(O)[C@@H]1C[C@@H](O)CN1; X24 = O=C(CCN1CCS(=O)(=O)CC1)*; Thr(3ξ) = CC(O)[C@H](N)C(=O)O; Chg = N[C@H](C(=O)O)C1CCCCC1; 4Abz = Nc1ccc(C(=O)O)cc1; Dab = NCC[C@H](N)C(=O)O
How the values were obtained:
Format in all cases: cell-based
Klebsiella pneumoniae [1] = assay: MIC, sole activity (no second agent); conditions: in the absence of Rifampicin; strain ATCC 4352
Description: (§1) To evaluate the potency and spectrum of the compounds both alone and in combination with another agent, susceptibility testing was performed against up to four strains of each of the four Gram negative pathogens, Escherichia coli, Pseudomonas aeruginosa, Klebsiella pneumoniae and Acinetobacter baumannii.
(§2) The inoculum was prepared by making a direct suspension of isolated colonies (selected from an 18-24 hour Mueller-Hinton agar plate) adjusted to the 0.5 McFarland standard.
(§3) The assays were performed in duplicate.
(§4) In cases where the duplicate values varied by less than 2-fold, the lower of the two values is reported. If a variation of greater than 2-fold was observed, the assay was considered non-valid. Several of the compounds were subjected to multiple tests, and where this is the case, the MIC reflects the modal value obtained.
(§5) MICs were determined as described herein, except that a different supplier of Cation-adjusted MHB was used. […] Values are reported relative to Polymyxin B.

Pseudomonas aeruginosa [2] = assay: MIC, sole activity (no second agent); conditions: in the absence of Rifampicin; strain ATCC27853
Description: as §1, §2, §3, §4, §5

Escherichia coli = assay: MIC, sole activity (no second agent); conditions: in the absence of Rifampicin; strain ATCC25922
Description: as §1, §2, §3, §4, §5

Klebsiella pneumoniae [3] = assay: MIC, compound in combination with a second agent (broth microdilution); conditions: 1:1 (wt:wt) combination with Rifampicin
Description: as §1
(§6) Ratios of components in a combination, such as 1:1, refers to a weight to weight ratio. The minimum inhibitory concentration (MIC) refers to the total drug concentration (e.g. test compound plus second agent, such as Rifampicin).
as §2, §3, §4
(§7) The minimum inhibitory concentration refers to the total drug concentration (e.g. test compound plus Rifampicin). The compounds are used at equal mass within the combination. The weight refers to the mass of compound as used, for example the Example Compounds are used in their TFA or sulphate salt forms.
(§8) MICs refer to the total drug concentration. Thus, where a 1:1 combination is used, this is the amount of the test compound plus the second agent. For comparison, the MIC values for the second agent alone are also given.

Pseudomonas aeruginosa [4] = assay: as above; conditions: 1:1 (wt:wt) combination with Rifampicin
Description: as §1, §6, §2, §3, §4, §7, §8

[5] = MIC = total drug concentration, strain ATCC-BAA-2146
[6] = MIC = total drug concentration, strain CCUG-59348
[7] = MIC = total drug concentration, strain NCTC 13438
[8] = MIC = total drug concentration, strain CCUG 59626
[9] = MIC is total drug concentration

Row | SMILES | MIC K. pneumoniae ATCC 4352 (Klebsiella pneumoniae [1]) [micrograms/mL] | MIC P. aeruginosa ATCC 27853 (Pseudomonas aeruginosa [2]) [micrograms/mL] | MIC E. coli ATCC25922 (Escherichia coli) [micrograms/mL] | MIC K. pneumoniae ATCC-BAA-2146 (Klebsiella pneumoniae [3]; [5]) [micrograms/mL] | MIC K. pneumoniae CCUG-59348 (Klebsiella pneumoniae [3]; [6]) [micrograms/mL] | MIC K. pneumoniae NCTC 13438 (Klebsiella pneumoniae [3]; [7]) [micrograms/mL] | MIC P. aeruginosa CCUG 59626 (Pseudomonas aeruginosa [4]; [8]) [micrograms/mL] | MIC K. pneumoniae ATCC-BAA-2146 (Klebsiella pneumoniae [3]; [9]) [micrograms/mL] | MIC K. pneumoniae CCUG-59348 (Klebsiella pneumoniae [3]; [9]) [micrograms/mL] | MIC K. pneumoniae NCTC 13438 (Klebsiella pneumoniae [3]; [9]) [micrograms/mL] | MIC P. aeruginosa CCUG 59626 (Pseudomonas aeruginosa [4]; [9]) [micrograms/mL]
1 | CCCCCCC(O)C(=O)N[C@H](C(=O)N[C@@H](CCN)C(=O)N[C@H]1CCNC(=O)[C@H](C(C)O)NC(=O)[C@H](CCN)NC(=O)[C@H](CCN)NC(=O)[C@H](CC(C)C)NC(=O)[C@@H](CC(C)C)NC(=O)[C@H](CCN)NC1=O)C(C)O (mixture of isomers) [Example 19, 2-(RS)-2- Hydroxyoctanoyl polymyxin E nonapeptide] | 8 | 4 | 8 | 2 | 2 | 0.5 | 1 | – | – | – | –
2 | CC(C)C[C@@H]1NC(=O)[C@@H](Cc2ccccc2)NC(=O)[C@H](CCN)NC(=O)[C@@H](NC(=O)[C@H](CCN)NC(=O)[C@@H](NC(=O)c2ccc(N)cc2)C(C)O)CCNC(=O)[C@H](C(C)O)NC(=O)[C@H](CCN)NC(=O)[C@H](CCN)NC1=O (some centres unmarked) [Example 5, 4-Aminobenzoyl polymyxin B nonapeptide] (H-[4Abz][Thr(3ξ)][Dab][Dab][Dab][dF]L[Dab][Dab][Thr(3ξ)]; lactam 4-C) | – | – | – | 1 | 2 | 1 | 0.25 | 1 | 2 | 1 | 0.25
3 | CC(C)C[C@@H]1NC(=O)[C@@H](Cc2ccccc2)NC(=O)[C@H](CCN)NC(=O)[C@@H](NC(=O)[C@H](CCN)NC(=O)[C@@H](NC(=O)CCN2CCS(=O)(=O)CC2)C(C)O)CCNC(=O)[C@H](C(C)O)NC(=O)[C@H](CCN)NC(=O)[C@H](CCN)NC1=O (some centres unmarked) [Example 12, 3-(1,1-dioxo-thiomorpholine-4-yl)propanoyl Polymyxin B nonapeptide] (X24-[Thr(3ξ)][Dab][Dab][Dab][dF]L[Dab][Dab][Thr(3ξ)]; lactam 3-C) | – | – | – | 4 | 16 | 4 | 0.5 | – | – | – | –
4 | CC(C)C[C@@H]1NC(=O)[C@@H](Cc2ccccc2)NC(=O)[C@H](CCN)NC(=O)[C@@H](NC(=O)[C@H](CCN)NC(=O)[C@@H](NC(=O)[C@@H]2C[C@@H](O)CN2)C(C)O)CCNC(=O)[C@H](C(C)O)NC(=O)[C@H](CCN)NC(=O)[C@H](CCN)NC1=O (stereo partly drawn) [Example 35, (2S,4R)-4-Hydroxy-2-pyrrolidine carbonyl polymyxin B nonapeptide, trifluoroacetate salt] (H-[Hyp][Thr(3ξ)][Dab][Dab][Dab][dF]L[Dab][Dab][Thr(3ξ)]; lactam 4-C) | – | – | – | 4 | 16 | 4 | 0.5 | – | – | – | –
5 | CC(C)C[C@@H]1NC(=O)[C@@H](Cc2ccccc2)NC(=O)[C@H](CCN)NC(=O)[C@@H](NC(=O)[C@H](CCN)NC(=O)[C@@H](NC(=O)[C@@H](N)C2CCCCC2)C(C)O)CCNC(=O)[C@H](C(C)O)NC(=O)[C@H](CCN)NC(=O)[C@H](CCN)NC1=O (stereo partly drawn) [Example 40, 2-(S)-(2-amino-2-cyclohexyl)ethanoyl polymyxin B nonapeptide, trifluoroacetate salt] (H-[Chg][Thr(3ξ)][Dab][Dab][Dab][dF]L[Dab][Dab][Thr(3ξ)]; lactam 4-C) | – | – | – | 2 | 8 | – | 0.5 | – | – | – | –
6 | CC(C)C[C@@H]1NC(=O)[C@@H](Cc2ccccc2)NC(=O)[C@H](CCN)NC(=O)[C@@H](NC(=O)[C@H](CCN)NC(=O)[C@@H](NCCC2(N)CCCCC2)C(C)O)CCNC(=O)[C@H](C(C)O)NC(=O)[C@H](CCN)NC(=O)[C@H](CCN)NC1=O (some centres unmarked) [Example 49, N-[2-(1-aminocyclohexyl)ethyl] Polymyxin B nonapeptide] (H-[X25][Dab][Dab][Dab][dF]L[Dab][Dab][Thr(3ξ)]; lactam 3-C) | – | – | – | 2 | 8 | – | 0.25 | – | – | – | –

Reference: US10407467B2, “Polymyxin derivatives and their use in combination therapy together with different antibiotics” (priority 2013, dated 2019)
